The values that follow come from patent US7803769B2 (priority 2006, dated 2010).

SMILES strings stand for the structures. Bridge positions count the residues as written; N and C are the ends. Square brackets hold non-standard residues; d marks the D form. Peptide text beside a SMILES is read from it. 1Nal = N[C@@H](Cc1cccc2ccccc12)C(=O)O

One assay has as its target T1, human Kv1.3 (CHO) (Homo sapiens, UniProt P22001).
T1 construct: expressed in transfected cells
Nature of the assay: cell-based.

The next assay addresses T2, human Kv1.1 (HEK293) (Homo sapiens, UniProt Q09470).
T2 construct: expressed in transfected cells; host or cells: HEK293
Nature of the assay: cell-based.

T2 sequence (Q09470 whole entry): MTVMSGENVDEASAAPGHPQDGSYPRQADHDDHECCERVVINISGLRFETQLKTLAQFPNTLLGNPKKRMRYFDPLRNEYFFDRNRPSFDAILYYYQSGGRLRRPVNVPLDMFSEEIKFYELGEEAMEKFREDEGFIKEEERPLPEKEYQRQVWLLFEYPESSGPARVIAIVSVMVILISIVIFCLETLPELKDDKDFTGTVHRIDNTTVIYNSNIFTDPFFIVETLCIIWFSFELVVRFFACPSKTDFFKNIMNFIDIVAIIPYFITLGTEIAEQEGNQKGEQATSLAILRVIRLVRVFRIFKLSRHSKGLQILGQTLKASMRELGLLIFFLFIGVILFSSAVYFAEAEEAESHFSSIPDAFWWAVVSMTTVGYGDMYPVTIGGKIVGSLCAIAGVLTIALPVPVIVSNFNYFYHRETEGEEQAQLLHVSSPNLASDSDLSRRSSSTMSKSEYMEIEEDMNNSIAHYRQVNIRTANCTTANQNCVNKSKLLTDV
T1 sequence (P22001 whole entry): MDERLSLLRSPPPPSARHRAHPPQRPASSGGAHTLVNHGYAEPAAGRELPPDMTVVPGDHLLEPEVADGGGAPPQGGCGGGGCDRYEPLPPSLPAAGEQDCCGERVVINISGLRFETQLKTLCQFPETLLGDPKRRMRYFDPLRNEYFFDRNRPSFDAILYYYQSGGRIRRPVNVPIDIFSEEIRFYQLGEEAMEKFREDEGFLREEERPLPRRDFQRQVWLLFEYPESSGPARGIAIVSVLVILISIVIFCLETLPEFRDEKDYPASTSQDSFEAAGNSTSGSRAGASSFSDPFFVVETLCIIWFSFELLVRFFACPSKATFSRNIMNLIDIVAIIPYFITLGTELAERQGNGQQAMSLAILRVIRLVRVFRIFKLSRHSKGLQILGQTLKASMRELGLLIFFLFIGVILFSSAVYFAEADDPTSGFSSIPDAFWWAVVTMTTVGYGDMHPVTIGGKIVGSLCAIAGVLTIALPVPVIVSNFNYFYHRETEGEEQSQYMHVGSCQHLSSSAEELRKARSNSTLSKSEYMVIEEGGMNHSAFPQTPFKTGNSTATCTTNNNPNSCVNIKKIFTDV

One may read the IC50 as the concentration that inhibits the measured activity by half. On to `CC[C@H](C)[C@@H]1NC(=O)[C@H](CCCCN)NC(=O)[C@@H](NC(=O)[C@H](CCCCN)NC(=O)[C@@H](NC(=O)[C@H](CC(N)=O)NC(=O)[C@@H](NC(=O)[C@@H](NC(=O)[C@@H](NC(=O)CN)C(C)C)[C@@H](C)CC)[C@@H](C)CC)C(C)C)CSSC[C@@H]2NC(=O)[C@H](CCCCN)NC(=O)CNC(=O)[C@H](Cc3ccccc3)NC(=O)[C@H](CCCNC(=N)N)NC(=O)[C@H](CCSC)NC(=O)CNC(=O)[C@H](C)NC(=O)[C@H](CCCCN)NC(=O)[C@H](CCCCN)NC(=O)[C@@H]3CSSC[C@@H](C(=O)N[C@H](C(=O)N4CCC[C@H]4C(=O)N[C@@H](CCCCN)C(=O)O)[C@@H](C)O)NC(=O)[C@H](Cc4c[nH]cn4)NC(=O)[C@H](CSSC[C@H](NC(=O)[C@H](CCC(N)=O)NC(=O)[C@H](CCCNC(=N)N)NC(=O)[C@H](CO)NC1=O)C(=O)N[C@@H](CC(C)C)C(=O)N[C@@H](CCC(=O)O)C(=O)N1CCC[C@H]1C(=O)N3)NC(=O)[C@H](CCCCN)NC(=O)[C@H](Cc1cccc3ccccc13)NC(=O)[C@H](CC(N)=O)NC(=O)[C@H](CCSC)NC2=O` [G31Nal] (H-GVIINVKCKISRQCLEPCKKAGMRFGKCMN[1Nal]KCHCTPK-OH; disulfide 8-28, 14-33, 18-35), for which the IC50 was 0.0338 nM at human Kv1.3 (CHO) and below 0.00152 nM against human Kv1.1 (HEK293).
Turning to `CC[C@H](C)[C@H](NC(=O)[C@H](C)NC(=O)CN)C(=O)N[C@H](C(=O)N[C@@H](CC(N)=O)C(=O)N[C@H](C(=O)N[C@@H](CCCCN)C(=O)N[C@H]1CSSC[C@@H]2NC(=O)[C@H](CCCCN)NC(=O)CNC(=O)[C@H](Cc3ccccc3)NC(=O)[C@H](CCCNC(=N)N)NC(=O)[C@H](CCSC)NC(=O)CNC(=O)[C@H](C)NC(=O)[C@H](CCCCN)NC(=O)[C@H](CCCCN)NC(=O)[C@@H]3CSSC[C@@H](C(=O)N[C@H](C(=O)N4CCC[C@H]4C(=O)N[C@@H](CCCCN)C(=O)O)[C@@H](C)O)NC(=O)[C@H](Cc4c[nH]cn4)NC(=O)[C@H](CSSC[C@H](NC(=O)[C@H](CCC(N)=O)NC(=O)[C@H](CCCNC(=N)N)NC(=O)[C@H](CO)NC(=O)[C@H]([C@@H](C)CC)NC(=O)[C@H](CCCCN)NC1=O)C(=O)N[C@@H](CC(C)C)C(=O)N[C@@H](CCC(=O)O)C(=O)N1CCC[C@H]1C(=O)N3)NC(=O)[C@H](CCCCN)NC(=O)CNC(=O)[C@H](CC(N)=O)NC(=O)[C@H](CCSC)NC2=O)C(C)C)[C@@H](C)CC` [V2A] (H-GAIINVKCKISRQCLEPCKKAGMRFGKCMNGKCHCTPK-OH; disulfide 8-28, 14-33, 18-35), the values for the IC50 on human Kv1.3 (CHO) and against human Kv1.1 (HEK293) were 0.0818 nM and 0.00994 nM, respectively.
The corresponding values for `CC[C@H](C)[C@@H]1NC(=O)[C@H](CCCCN)NC(=O)[C@@H](NC(=O)[C@H](CCCCN)NC(=O)[C@@H](NC(=O)[C@H](CC(N)=O)NC(=O)[C@@H](NC(=O)[C@@H](NC(=O)[C@@H](NC(=O)CN)C(C)C)[C@@H](C)CC)[C@@H](C)CC)C(C)C)CSSC[C@@H]2NC(=O)[C@H](CCCCN)NC(=O)[C@H](Cc3cccc4ccccc34)NC(=O)[C@H](Cc3ccccc3)NC(=O)[C@H](CCCNC(=N)N)NC(=O)[C@H](CCSC)NC(=O)CNC(=O)[C@H](C)NC(=O)[C@H](CCCCN)NC(=O)[C@H](CCCCN)NC(=O)[C@@H]3CSSC[C@@H](C(=O)N[C@H](C(=O)N4CCC[C@H]4C(=O)N[C@@H](CCCCN)C(=O)O)[C@@H](C)O)NC(=O)[C@H](Cc4c[nH]cn4)NC(=O)[C@H](CSSC[C@H](NC(=O)[C@H](CCC(N)=O)NC(=O)[C@H](CCCNC(=N)N)NC(=O)[C@H](CO)NC1=O)C(=O)N[C@@H](CC(C)C)C(=O)N[C@@H](CCC(=O)O)C(=O)N1CCC[C@H]1C(=O)N3)NC(=O)[C@H](CCCCN)NC(=O)CNC(=O)[C@H](CC(N)=O)NC(=O)[C@H](CCSC)NC2=O` [G26Nal] (H-GVIINVKCKISRQCLEPCKKAGMRF[1Nal]KCMNGKCHCTPK-OH; disulfide 8-28, 14-33, 18-35) are above 3.33 nM and 1.57 nM.
The corresponding values for `CC[C@H](C)[C@@H]1NC(=O)[C@H](CCCCN)NC(=O)[C@@H](NC(=O)[C@H](CCCCN)NC(=O)[C@@H](NC(=O)[C@H](CC(N)=O)NC(=O)[C@@H](NC(=O)[C@H](Cc2cccc3ccccc23)NC(=O)[C@@H](NC(=O)CN)C(C)C)[C@@H](C)CC)C(C)C)CSSC[C@@H]2NC(=O)[C@H](CCCCN)NC(=O)CNC(=O)[C@H](Cc3ccccc3)NC(=O)[C@H](CCCNC(=N)N)NC(=O)[C@H](CCSC)NC(=O)CNC(=O)[C@H](C)NC(=O)[C@H](CCCCN)NC(=O)[C@H](CCCCN)NC(=O)[C@@H]3CSSC[C@@H](C(=O)N[C@H](C(=O)N4CCC[C@H]4C(=O)N[C@@H](CCCCN)C(=O)O)[C@@H](C)O)NC(=O)[C@H](Cc4c[nH]cn4)NC(=O)[C@H](CSSC[C@H](NC(=O)[C@H](CCC(N)=O)NC(=O)[C@H](CCCNC(=N)N)NC(=O)[C@H](CO)NC1=O)C(=O)N[C@@H](CC(C)C)C(=O)N[C@@H](CCC(=O)O)C(=O)N1CCC[C@H]1C(=O)N3)NC(=O)[C@H](CCCCN)NC(=O)CNC(=O)[C@H](CC(N)=O)NC(=O)[C@H](CCSC)NC2=O` [I3Nal] (H-GV[1Nal]INVKCKISRQCLEPCKKAGMRFGKCMNGKCHCTPK-OH; disulfide 8-28, 14-33, 18-35) are 0.0103 nM and 0.00234 nM.
In the case of `CC[C@H](C)[C@@H]1NC(=O)[C@H](CCCCN)NC(=O)[C@@H](NC(=O)[C@H](CCCCN)NC(=O)[C@H](Cc2cccc3ccccc23)NC(=O)[C@H](CC(N)=O)NC(=O)[C@@H](NC(=O)[C@@H](NC(=O)[C@@H](NC(=O)CN)C(C)C)[C@@H](C)CC)[C@@H](C)CC)CSSC[C@@H]2NC(=O)[C@H](CCCCN)NC(=O)CNC(=O)[C@H](Cc3ccccc3)NC(=O)[C@H](CCCNC(=N)N)NC(=O)[C@H](CCSC)NC(=O)CNC(=O)[C@H](C)NC(=O)[C@H](CCCCN)NC(=O)[C@H](CCCCN)NC(=O)[C@@H]3CSSC[C@@H](C(=O)N[C@H](C(=O)N4CCC[C@H]4C(=O)N[C@@H](CCCCN)C(=O)O)[C@@H](C)O)NC(=O)[C@H](Cc4c[nH]cn4)NC(=O)[C@H](CSSC[C@H](NC(=O)[C@H](CCC(N)=O)NC(=O)[C@H](CCCNC(=N)N)NC(=O)[C@H](CO)NC1=O)C(=O)N[C@@H](CC(C)C)C(=O)N[C@@H](CCC(=O)O)C(=O)N1CCC[C@H]1C(=O)N3)NC(=O)[C@H](CCCCN)NC(=O)CNC(=O)[C@H](CC(N)=O)NC(=O)[C@H](CCSC)NC2=O` [V6Nal] (H-GVIIN[1Nal]KCKISRQCLEPCKKAGMRFGKCMNGKCHCTPK-OH; disulfide 8-28, 14-33, 18-35), the IC50 against human Kv1.3 (CHO) was 0.021 nM; against human Kv1.1 (HEK293), below 0.00152 nM.
With `CC[C@H](C)[C@@H]1NC(=O)[C@H](CCCCN)NC(=O)[C@@H](NC(=O)[C@H](CCCCN)NC(=O)[C@@H](NC(=O)[C@H](CC(N)=O)NC(=O)[C@@H](NC(=O)[C@@H](NC(=O)[C@@H](NC(=O)CN)C(C)C)[C@@H](C)CC)[C@@H](C)CC)C(C)C)CSSC[C@@H]2NC(=O)[C@H](CCCCN)NC(=O)CNC(=O)[C@H](Cc3ccccc3)NC(=O)[C@H](CCCNC(=N)N)NC(=O)[C@H](CCSC)NC(=O)CNC(=O)[C@H](C)NC(=O)[C@H](CCCCN)NC(=O)[C@H](Cc3cccc4ccccc34)NC(=O)[C@@H]3CSSC[C@@H](C(=O)N[C@H](C(=O)N4CCC[C@H]4C(=O)N[C@@H](CCCCN)C(=O)O)[C@@H](C)O)NC(=O)[C@H](Cc4c[nH]cn4)NC(=O)[C@H](CSSC[C@H](NC(=O)[C@H](CCC(N)=O)NC(=O)[C@H](CCCNC(=N)N)NC(=O)[C@H](CO)NC1=O)C(=O)N[C@@H](CC(C)C)C(=O)N[C@@H](CCC(=O)O)C(=O)N1CCC[C@H]1C(=O)N3)NC(=O)[C@H](CCCCN)NC(=O)CNC(=O)[C@H](CC(N)=O)NC(=O)[C@H](CCSC)NC2=O` [K19Nal] (H-GVIINVKCKISRQCLEPC[1Nal]KAGMRFGKCMNGKCHCTPK-OH; disulfide 8-28, 14-33, 18-35), the IC50 on human Kv1.3 (CHO) is 0.0172 nM; against human Kv1.1 (HEK293), below 0.00152 nM.
